Data set [1] deals with MDA-MB-231 cell line. Further details: method as in PMID 34578985. As to conditions: MDA-MB-231 breast cancer cell line; cited from earlier work.
The subject of data set [2] is Neisseria gonorrhoeae. Further details: method as in PMID 23510516. As to conditions: cited from earlier work.
The subject of data set [3] is Enterococcus faecalis. Further details: method as in PMID 23510516. As to conditions: cited from earlier work.
For data set [4], the system named is MCF-7 cell line. On the set-up: method as in PMID 34578985. As to conditions: MCF-7 breast cancer cell line; cited from earlier work.
Data set [5] concerns Escherichia coli. On the set-up: method as in PMID 23510516. The following applies: cited from earlier work.
In data set [6] the test system is Pasteurella multocida. Further details: method as in PMID 23510516. As to conditions: cited from earlier work.
In data set [7] the test system is Staphylococcus aureus MRSA strain. On the set-up: method as in PMID 23510516. The following applies: cited from earlier work.
For data set [8], the system named is HepG2 cells. Further details: method as in doi:10.1016/j.cclet.2016.10.020. As to conditions: standard; cited from earlier work.
Data set [9] deals with Bacillus subtilis ATCC 6633. Briefly: Broth microdilution MIC/MBC. The data set is classed as cell-based. The procedure, abridged:
(§1)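 Compounds were dissolved in DMSO and tested against reference strains, including Gram-positive bacteria and Candida spp., following EUCAST and CLSI broth microdilution procedures. Two-fold serial dilutions covered final concentrations from 1000 to 0.488 µg/ml, in RPMI 1640/MOPS for fungi and Mueller-Hinton broth for bacteria. Each strain was added as a 0.5 McFarland suspension.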

For data set [10], the system named is Candida albicans ATCC 2091. Briefly: Broth microdilution MIC/MFC. The format is cell-based. The gist of the method: as §1
For data set [11], the system named is Candida krusei ATCC 14243. Briefly: Broth microdilution MIC/MFC. As to conditions: Pichia kudriavzevii, ATCC14243, read-out: MIC. The format is cell-based. The gist of the method:
as §1

The subject of data set [12] is Candida albicans ATCC 10231. Briefly: Broth microdilution MIC/MFC. The format is cell-based. The procedure, abridged: as §1
On the technique in general: Dilution methods test growth across graded concentrations, often in twofold steps.

Data set [13] has as its system Candida glabrata ATCC 90030. Kind of data set: Broth microdilution MIC/MFC. The following applies: Nakaseomyces glabratus, ATCC90030, read-out: MIC. The format is cell-based. The procedure, abridged: as §1
For data set [14], the system named is Candida parapsilosis ATCC 22019. Kind of data set: Broth microdilution MIC/MFC. The following applies: Lodderomyces parapsilosis, ATCC22019, read-out: MIC. The data set is classed as cell-based. The gist of the method: as §1
For data set [15], the system named is Enterococcus faecalis ATCC 29212. Kind of data set: Broth microdilution MIC/MBC. The data set is classed as cell-based. The gist of the method:
as §1

The subject of data set [16] is Bordetella bronchiseptica ATCC 4617. Briefly: Broth microdilution MIC/MBC. The format is cell-based. The procedure, abridged: as §1
The subject of data set [17] is Klebsiella pneumoniae ATCC 13883. Kind of data set: Broth microdilution MIC/MBC. The data set is classed as cell-based. The procedure, abridged: as §1
Data set [18] relates to Bacillus cereus ATCC 10876. Kind of data set: Broth microdilution MIC/MBC. The format is cell-based. The gist of the method: as §1
Data set [19] concerns Escherichia coli ATCC 25922. Kind of data set: Broth microdilution MIC/MBC. The data set is classed as cell-based. The gist of the method:
as §1

Data set [20] has as its system Pseudomonas aeruginosa ATCC 9027. Briefly: Broth microdilution MIC/MBC. The data set is classed as cell-based. As to conditions: ATCC9027. The procedure, abridged:
as §1

Data set [21] deals with Staphylococcus aureus ATCC 29213. Briefly: Broth microdilution MIC/MBC. The format is cell-based. The gist of the method:
as §1

Data set [22] concerns Salmonella typhimurium ATCC 14028. Briefly: Broth microdilution MIC/MBC. The format is cell-based. The gist of the method:
as §1

The test system of data set [23] is Proteus mirabilis ATCC 12453. Kind of data set: Broth microdilution MIC/MBC. The data set is classed as cell-based. The procedure, abridged: as §1
The test system of data set [24] is Staphylococcus epidermidis ATCC 12228. Briefly: Broth microdilution MIC/MBC. The format is cell-based. The procedure, abridged:
as §1

The subject of data set [25] is Staphylococcus aureus ATCC 43300. Briefly: Broth microdilution MIC/MBC. As to conditions: Staphylococcus aureus ATCC 43300 (MRSA). The data set is classed as cell-based. The gist of the method: as §1
Data set [26] relates to Micrococcus luteus ATCC 10240. Kind of data set: Broth microdilution MIC/MBC. The format is cell-based. The procedure, abridged: as §1
The subject of data set [27] is reference Gram-positive bacteria. Briefly: Broth microdilution, summary over the Gram-positive panel. The data set is classed as cell-based. As to conditions: read-out: MIC. An excerpt: (§2) In vitro antimicrobial activity assays - Methodology
(§3) The examined compounds 1 - 24 were screened in vitro for antibacterial and antifungal activities using the broth microdilution method according to procedure reported earlier by our research group and European Committee on Antimicrobial Susceptibility Testing (EUCAST) and Clinical and Laboratory Standards Institute (CLSI) guidelines against a panel of reference and clinical or saprophytic strains of microorganisms, in-cluding Gram-positive bacteria, Staphylococcus aureus ATCC 43300 (Methicillin Resistant S. aureus – MRSA), Staphylococcus aureus ATCC 29213 (Methicillin Susceptible S. aureus – MSSA), Staphylococcus epidermidis ATCC 12228, Enterococcus faecalis ATCC 29212, Micro-coccus luteus ATCC 10240, Bacillus subtilis ATCC 6633 and Bacillus cereus ATCC 10876), Gram-negative bacteria (Bordetella bronchiseptica ATCC 4617, Escherichia coli ATCC 25922, Klebsiella pneumoniae ATCC 13883, Proteus mirabilis ATCC 12453, Salmonella typhimurium ATCC 14028 and Pseudomonas aeruginosa ATCC 9027) and fungi belonging to yeasts (Can-dida albicans ATCC 10231, Candida albicans ATCC 2091, Candida parapsilosis ATCC 22019, Candida glabrata ATCC 90030 and Candida krusei ATCC 14243). The microorganisms be-longing to ATCC came from American Type Culture Collection, routinely used for the evaluation of antimicrobials. […]
Samples containing examined compounds were dissolved in dimethyl sulfoxide (DMSO). […]
(§4) Subsequently, the MIC (Minimal Inhibitory Concentration) of the compounds was ex-amined by the microdilution broth method, using their two-fold dilutions in Mueller- […]
(§5) Hinton broth or (for bacteria) and RPMI 1640 broth with MOPS (for fungi) prepared in 96-well polystyrene plates. Final concentrations of the compounds ranged from 1000 to 0.488 µg/ml. Microbial suspensions were prepared in 0.85% NaCl with an optical density of 0.5 McFarland standard. Next each bacterial or fungal suspension was added per each well containing broth and various concentrations of the examined compounds. After incuba-

In data set [28] the test system is Gram-negative bacteria. Briefly: Broth microdilution, summary over the Gram-negative panel. The format is cell-based.
Excerpt: as §2
as §3, with “antimicrobials. All the used microbial cultures were first subcultured on nu-trient agar or Sabouraud agar at 35°C for 18-24 h or 30°C for 24-48 h for bacteria and fungi,” for “antimicrobials.”
The surface of Mueller-Hinton agar (for bacteria) and RPMI 1640 with MOPS (for fungi) were inoculated with the suspensions of bacterial or fungal species. Microbial suspensions were prepared in sterile saline with an optical density of McFarland standard scale 0.5.
Samples containing examined compounds were dissolved in dimethyl sulfoxide (DMSO).
Furthermore, bacterial and fungal suspensions were put onto Petri dishes with solid me-dia containing 2 mg/mL of the tested compounds followed incubation at 37°C for 24h and 30°C for 48h for bacteria and fungi, respectively. The inhibition of microbial growth was judged by comparison with a control culture prepared without any sample tested. Ciprof-loxacin, vancomycin, nitrofurantoin, cefuroxime, ampicillin or nystatin (Sigma) were used as a reference antibacterial or antifungal compounds, respectively.
as §4, §5

Each structure is given as a SMILES string. ≈ marks a conversion by molar mass, not a printed value. A value given as a limit tells only on which side of the number the result lay.

Broadly, the IC50 is the midpoint of a concentration-inhibition curve. By MIC is commonly meant the least concentration at which growth counts as inhibited. For `O=C(O)c1ccc(O)cc1O` [2,4-dihydroxybenzoic acid], the IC50 in data set [1] was 4.77 mM. Also, the MIC in data set [2] is 1.0 mg/mL (≈ 6490 µM); in [3], 1.0 mg/mL (≈ 6490 µM); in data set [5], 1.0 mg/mL (≈ 6490 µM); in data set [6], 1.0 mg/mL (≈ 6490 µM); in data set [7] it was 0.5 mg/mL (≈ 3240 µM). Also, the cytotoxicity entry in [4] is listed as “nontoxic”.

For the compound `COc1cccc2c1C(=O)c1c(O)c3c(c(O)c1C2=O)C[C@@](O)(C(=O)CO)C[C@@H]3O[C@H]1C[C@H](N)[C@H](O)[C@H](C)O1` [doxorubicin], in data set [8], the IC50 was 6 µM.

The term MBC denotes the smallest concentration meeting the test's criterion for killing. The MFC is the smallest concentration meeting the test's criterion for killing the fungus. Usually melting point stands for the temperature, or range, at which the solid turns liquid. On to `O=C(N/N=C/c1cc(Br)c(O)c(Br)c1)c1ccc(O)cc1O` [Compound 17, N-[(3,5-dibromo-4-hydroxyphenyl)methylidene]-2,4-dihydroxybenzohydrazide], for which the melting point was 260 °C. Further, the MBC/MIC in data set [9] is > 8. Further, the MBC in data set [9] (ATCC6633) was > 1000 µg/mL. Moreover, the MIC in [9] (ATCC6633, read-out: MIC) was 125 µg/mL (≈ 291 µM). For the same compound, the MFC/MIC in data set [10] is recorded as > 1. Moreover, the MFC in data set [10] (ATCC2091, read-out: MFC) is > 1000 µg/mL. The MIC in data set [10] (ATCC2091, read-out: MIC) worked out at 1000 µg/mL (≈ 2330 µM). Further, the MIC in data set [11] was > 1000 µg/mL. Besides, the MFC/MIC in data set [12] is reported as > 1. Moreover, the MFC in data set [12] (ATCC10231, read-out: MFC) was > 1000 µg/mL. Further, the MIC in data set [12] (ATCC10231, read-out: MIC) is 1000 µg/mL (≈ 2330 µM). Besides, in [13], the MIC was > 1000 µg/mL. The MIC in data set [14] was > 1000 µg/mL. For the same compound, the MBC/MIC in [15] is given as > 1. Also, the MBC in data set [15] (ATCC29212, read-out: MBC) was > 1000 µg/mL. The MIC in data set [15] (ATCC29212, read-out: MIC) came out at 500 µg/mL (≈ 1160 µM). In data set [16], the MBC/MIC was > 1. Further, in data set [16] (ATCC4617), the MBC was > 1000 µg/mL and the MIC worked out at 1000 µg/mL (≈ 2330 µM). In addition, the MBC/MIC in data set [17] is on record as > 1. In data set [17] (ATCC13883), the MBC was > 1000 µg/mL and the MIC was found to be 1000 µg/mL (≈ 2330 µM). Moreover, the MBC/MIC in data set [18] is on record as > 4. The MBC in [18] (ATCC10876) is > 1000 µg/mL. For the same compound, the MIC in data set [18] (ATCC10876, read-out: MIC) worked out at 250 µg/mL (≈ 581 µM). Also, the MBC/MIC in data set [19] was > 1. Also, in [19] (ATCC25922), the MBC was > 1000 µg/mL and the MIC was determined as 1000 µg/mL (≈ 2330 µM). In [20], the MIC is > 1000 µg/mL. In [21], this compound returned an MBC/MIC of 32. Further, in data set [21] (ATCC29213), the MBC was > 1000 µg/mL and the lowest concentration to inhibit growth (MIC) was 31.2 µg/mL (≈ 72.7 µM). Further, the MBC/MIC in data set [22] is on record as > 1. Besides, in data set [22] (Salmonella enterica), the MBC is > 1000 µg/mL and it took 1000 µg/mL (≈ 2330 µM) to inhibit growth (MIC). Also, in data set [23], the MBC/MIC is > 1. Further, in data set [23] (ATCC12453), the MBC is > 1000 µg/mL and the MIC turned out to be 1000 µg/mL (≈ 2330 µM). Besides, the MBC/MIC in data set [24] is listed as > 8. In addition, the MBC in data set [24] (ATCC12228) was > 1000 µg/mL. For the same compound, the MIC in data set [24] (ATCC12228, read-out: MIC) is 250 µg/mL (≈ 581 µM). Further, in [25], the MBC was > 1000 µg/mL, the MBC/MIC is given as > 16 and the MIC stood at 62.5 µg/mL (≈ 145 µM). The MBC/MIC in data set [26] is listed as > 8. In [26] (ATCC10240), the MBC is > 1000 µg/mL. For the same compound, in data set [26] (ATCC10240, read-out: MIC), the MIC was found to be 125 µg/mL (≈ 291 µM). For the same compound, in data set [27], the MIC is 15.6 to 1000 µg/mL (≈ 36.3 to 2330 µM). Besides, in [28], the MBC is > 1000 µg/mL and the MIC was in the range of 500 to 1000 µg/mL (≈ 1160 to 2330 µM).

(Values after article PMC10743905, “Design, Synthesis, and In Vitro and In Vivo Bioactivity Studies of Hydrazide–Hydrazones of 2,4-Dihydroxybenzoic Acid” (International Journal of Molecular Sciences, 2023).)
